Experimental data published in PubChem BioAssay (NCI).
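Where inhibition never reached the appropriate level, the endpoint shown equals the highest concentration tested. Otherwise, values were interpolated linearly from a five-concentration, 48-hour dose response in 96-well plates. The concentration for 50% growth inhibition is given as GI50. TGI marks complete inhibition of growth.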

Assays:
Assay in all cases: growth of human tumour cells (NCI), 48 h
HOP-92 NSCLC = system: HOP-92 NSCLC
SNB-19 CNS = system: SNB-19 CNS
HCC-2998 colon = system: HCC-2998 colon
HT29 colon = system: HT29 colon
HCT-116 colon = system: HCT-116 colon
SF-268 CNS = system: SF-268 CNS
COLO 205 colon = system: COLO 205 colon
SR leukemia = system: SR leukemia
OVCAR-5 ovarian = system: OVCAR-5 ovarian
IGROV1 ovarian = system: IGROV1 ovarian

SMILES	GI50 (HOP-92 NSCLC) [µM]	TGI (HOP-92 NSCLC) [µM]	GI50 (SNB-19 CNS) [µM]	TGI (SNB-19 CNS) [µM]	GI50 (HCC-2998 colon) [µM]	TGI (HCC-2998 colon) [µM]	GI50 (HT29 colon) [µM]	TGI (HT29 colon) [µM]	GI50 (HCT-116 colon) [µM]	TGI (HCT-116 colon) [µM]	GI50 (SF-268 CNS) [µM]	TGI (SF-268 CNS) [µM]	GI50 (COLO 205 colon) [µM]	TGI (COLO 205 colon) [µM]	GI50 (SR leukemia) [µM]	TGI (SR leukemia) [µM]	GI50 (OVCAR-5 ovarian) [µM]	TGI (OVCAR-5 ovarian) [µM]	GI50 (IGROV1 ovarian) [µM]	TGI (IGROV1 ovarian) [µM]
O=P(O)(O)OCC1OC(n2cnc3c(NCc4ccccc4)ncnc32)C(O)C1O (centres undefined)	2.14	> 22.5	4.18	> 100	2.01	11.8	2.27	> 36	1.66	> 32.1	2.03	> 100	2.37	8.53	3.34	> 64.2	3.11	> 100	3.52	23
CC1=NOC(=O)/C1=C/c1ccc2c(c1)OCO2		> 100		95		95.5		57.3		> 100		> 100		32.4		52.5		> 100		78.5
COc1ccc2[nH]c(C(=O)OCc3ccc4c(Cl)cc(Cl)c(O)c4n3)cc2c1	0.456	1.99	2.18	5.69	1.64	3.29	0.778	2.32	0.436	1.65	1.42	2.77	1.13	2.56	0.38	3.7	1.49	2.9	0.601	1.95
C=C1C[C@@H]2C[C@@H](C)CC(O)[C@]2(CCCN)C1O (some centres undefined)		> 100		> 100		> 100		> 100		> 100		> 100		> 100		> 100		> 100		> 100
CC(C)c1ccc(NC(=O)Cc2ccc(Nc3ncnc4cc(-c5cnn(CCN(C)C)c5)ccc34)cc2)cc1	3.44	> 10	1.27	3.39	1.66	3.42	1.4	3.49	1.19	2.7	1.32	3.09	0.218	1.83	0.107	2.42	1.44	3.28	1.48	3.64
COc1cc2nccc(Oc3ccc(NC(=O)c4cn(C(C)C)c(=O)n(-c5ccc(F)cc5)c4=O)cc3F)c2cc1OC	0.347	> 100	> 100	> 100	> 100	> 100	6.25	> 100	5.4	> 100	4.51	> 51.6	> 100	> 100	> 100	> 100	5.6	> 100		> 100
COc1cc(NCCCCCN=C(N)NC(N)=NC(C)C)c2ncccc2c1	1.75	9.82	2.56	12.8	0.952	4.96	4.44	> 42.3	0.392	10.5	0.689	13.8	0.468	1.74	2.08	15.8	6.09	20.2	0.228	0.809
CCC(CO)Nc1nc2c(c(=O)n(C)c(=O)n2C)n1CCO (centres undefined)		> 100		> 100		> 100		> 100		> 100		> 100		> 100		> 100		> 100		> 100
COC(=O)CC[C@]12C[C@]13CC[C@]1(C)C4C(C)C[C@]5(CC(C)C(=O)O5)OC4CC1(C)C3CCC2C(C)(C)O (some centres undefined)		65.1		> 100		> 100		> 100		> 100		> 100		> 100		> 100		> 100		> 100
COc1ccc2c(c1)CCc1c-2n[nH]c1-c1[nH]nc2c1CCc1cc(OC)ccc1-2		78.1		> 100		> 100		> 100		> 100		> 100		> 100		> 100		> 100		> 100
C[N+](C)=c1ccc2nc3c(cc(NCCCNc4cc5oc6cc(=[N+](C)C)ccc-6nc5c5ccccc45)c4ccccc43)oc-2c1	14.7	40.1	3.6	19.4	1.77	3.47	1.81	6.29	1.95	5.79	2.17	9.2	1.02	2.45	2.58	> 28.5	2.85	10.9	1.36	8.67
